From patent publication US9611221B2, “Histone demethylase inhibitors” (CELGENE QUANTICEL RESEARCH, INC., priority 2012, dated 2017)
pIC50: −log10 of the molar value.

Assays:
Format in all cases: biochemical
Jarid1A = Jarid1A (Homo sapiens (Human), UniProt P29375); assay: Jarid1A in vitro enzyme inhibition assay (TR-FRET); conditions: 1 nM Jarid1A, 300 nM H3K4me3-biotin peptide, 2 μM alpha-ketoglutaric acid
Description: (§1) This assay determines the ability of a test compound to inhibit Jarid1A, Jarid1B, and JMJD2C demethylase activity. Baculovirus expressed Jarid1A (GenBank Accession #NM_001042603, AA1-1090) was purchased from BPS Bioscience (Cat#50110). Baculovirus expressed Jarid1B (GenBank Accession #NM_006618, AA 2-751) was purchased from BPS Bioscience (Cat #50121) or custom made by MolecularThroughput. Baculovirus expressed JMJD2C (GenBank Accession #BC143571, AA 2-372) was purchased from BPS Bioscience (Cat#50105).
(§2) The enzymatic assay of Jarid1A activity is based upon Time Resolved-Fluorescence Resonance Energy Transfer (TR-FRET) detection. The ability of test compounds to inhibit the activity of Jarid1A was determined in 384-well plate format under the following reaction conditions: 1 nM Jarid1A, 300 nM H3K4me3-biotin labeled peptide (Anaspec cat #64357), 2 μM alpha-ketoglutaric acid in assay buffer of 50 mM HEPES, pH7.3, 0.005% Brij35, 0.5 mM TCEP, 0.2 mg/ml BSA, 50 μM sodium L-ascorbate, and 2 μM ammonium iron(II) sulfate. Reaction product was determined quantitatively by TR-FRET after the addition of detection reagent Phycolink Streptavidin-allophycocyanin (Prozyme) and Europium-anti-mono- or di-methylated histone H3 lysine 4 (H3K4me1-2) antibody (PerkinElmer) in the presence of 5 mM EDTA in LANCE detection buffer (PerkinElmer) at a final concentration of 25 nM and 1 nM, respectively.
(§3) The reaction mixture was incubated at room temperature for 30 minutes, and terminated by the addition of 6 μl of 5 mM EDTA in LANCE detection buffer containing 50 nM Phycolink Streptavidin-allophycocyanin and 2 nM Europium-anti-H3K4me1-2 antibody. Plates were read by EnVisionMultilabel Reader in TR-FRET mode (excitation at 320 nm, emission at 615 nm and 665 nm) after 1 hour incubation at room temperature. A ratio was calculated (665/615) for each well and fitted to determine inhibition constant (IC50).

Jarid1B = Jarid1B (Homo sapiens (Human), UniProt Q9UGL1); assay: Jarid1B in vitro enzyme inhibition assay (TR-FRET); conditions: 0.8 nM Jarid1B, 300 nM H3K4me3-biotin peptide, 2 μM alpha-ketoglutaric acid
Chain of Jarid1B (Q9UGL1 2-751): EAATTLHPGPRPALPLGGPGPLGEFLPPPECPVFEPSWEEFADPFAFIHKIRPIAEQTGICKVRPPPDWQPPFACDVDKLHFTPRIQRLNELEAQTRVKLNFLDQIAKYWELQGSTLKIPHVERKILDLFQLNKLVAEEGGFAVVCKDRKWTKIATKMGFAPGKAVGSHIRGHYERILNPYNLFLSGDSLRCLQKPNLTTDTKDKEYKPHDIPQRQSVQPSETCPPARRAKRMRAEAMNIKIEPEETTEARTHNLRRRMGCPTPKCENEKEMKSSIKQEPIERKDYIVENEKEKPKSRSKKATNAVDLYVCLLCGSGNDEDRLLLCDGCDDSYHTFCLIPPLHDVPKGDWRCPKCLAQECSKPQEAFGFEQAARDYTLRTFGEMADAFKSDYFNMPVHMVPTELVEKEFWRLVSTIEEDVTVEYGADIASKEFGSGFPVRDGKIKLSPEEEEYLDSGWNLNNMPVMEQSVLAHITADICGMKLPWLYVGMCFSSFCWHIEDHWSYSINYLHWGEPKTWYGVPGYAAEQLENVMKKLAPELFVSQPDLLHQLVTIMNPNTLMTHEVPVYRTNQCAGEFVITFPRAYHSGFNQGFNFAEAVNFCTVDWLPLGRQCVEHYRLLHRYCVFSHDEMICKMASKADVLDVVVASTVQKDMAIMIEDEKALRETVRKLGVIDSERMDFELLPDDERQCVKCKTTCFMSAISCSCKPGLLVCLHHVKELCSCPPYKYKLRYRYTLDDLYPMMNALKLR
Description: as §1
as §2, with “The” for “The enzymatic assay of Jarid1A activity is based upon Time Resolved-Fluorescence Resonance Energy Transfer (TR-FRET) detection. The”, “of Jarid1B” for “of Jarid1A”, “conditions: 0.8” for “conditions: 1”, “nM Jarid1B,” for “nM Jarid1A,”
as §3

JMJD2C = JMJD2C (Homo sapiens (Human), UniProt Q9H3R0); assay: JMJD2C in vitro enzyme inhibition assay (TR-FRET); conditions: 0.3 nM JMJD2C, 300 nM H3K9me3-biotin peptide, 2 μM alpha-ketoglutaric acid
Chain of JMJD2C (Q9H3R0 2-372): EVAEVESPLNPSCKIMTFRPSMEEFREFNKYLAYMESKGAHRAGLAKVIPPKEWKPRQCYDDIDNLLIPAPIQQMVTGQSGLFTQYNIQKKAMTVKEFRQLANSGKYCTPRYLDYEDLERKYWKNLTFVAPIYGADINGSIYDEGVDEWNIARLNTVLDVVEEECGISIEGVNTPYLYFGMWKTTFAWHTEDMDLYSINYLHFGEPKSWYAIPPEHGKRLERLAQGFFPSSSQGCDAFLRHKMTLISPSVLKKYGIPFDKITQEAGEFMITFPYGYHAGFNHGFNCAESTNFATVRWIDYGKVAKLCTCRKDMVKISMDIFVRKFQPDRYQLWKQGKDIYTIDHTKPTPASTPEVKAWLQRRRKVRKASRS
How it was run: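 Baculovirus-expressed JMJD2C (AA 2-372), 0.3 nM, with 300 nM biotin-H3K9me3 peptide and 2 μM alpha-ketoglutarate in pH 7.3 HEPES buffer with ascorbate and Fe(II); 30 min at room temperature.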

Chain of Jarid1A (P29375 1-1090): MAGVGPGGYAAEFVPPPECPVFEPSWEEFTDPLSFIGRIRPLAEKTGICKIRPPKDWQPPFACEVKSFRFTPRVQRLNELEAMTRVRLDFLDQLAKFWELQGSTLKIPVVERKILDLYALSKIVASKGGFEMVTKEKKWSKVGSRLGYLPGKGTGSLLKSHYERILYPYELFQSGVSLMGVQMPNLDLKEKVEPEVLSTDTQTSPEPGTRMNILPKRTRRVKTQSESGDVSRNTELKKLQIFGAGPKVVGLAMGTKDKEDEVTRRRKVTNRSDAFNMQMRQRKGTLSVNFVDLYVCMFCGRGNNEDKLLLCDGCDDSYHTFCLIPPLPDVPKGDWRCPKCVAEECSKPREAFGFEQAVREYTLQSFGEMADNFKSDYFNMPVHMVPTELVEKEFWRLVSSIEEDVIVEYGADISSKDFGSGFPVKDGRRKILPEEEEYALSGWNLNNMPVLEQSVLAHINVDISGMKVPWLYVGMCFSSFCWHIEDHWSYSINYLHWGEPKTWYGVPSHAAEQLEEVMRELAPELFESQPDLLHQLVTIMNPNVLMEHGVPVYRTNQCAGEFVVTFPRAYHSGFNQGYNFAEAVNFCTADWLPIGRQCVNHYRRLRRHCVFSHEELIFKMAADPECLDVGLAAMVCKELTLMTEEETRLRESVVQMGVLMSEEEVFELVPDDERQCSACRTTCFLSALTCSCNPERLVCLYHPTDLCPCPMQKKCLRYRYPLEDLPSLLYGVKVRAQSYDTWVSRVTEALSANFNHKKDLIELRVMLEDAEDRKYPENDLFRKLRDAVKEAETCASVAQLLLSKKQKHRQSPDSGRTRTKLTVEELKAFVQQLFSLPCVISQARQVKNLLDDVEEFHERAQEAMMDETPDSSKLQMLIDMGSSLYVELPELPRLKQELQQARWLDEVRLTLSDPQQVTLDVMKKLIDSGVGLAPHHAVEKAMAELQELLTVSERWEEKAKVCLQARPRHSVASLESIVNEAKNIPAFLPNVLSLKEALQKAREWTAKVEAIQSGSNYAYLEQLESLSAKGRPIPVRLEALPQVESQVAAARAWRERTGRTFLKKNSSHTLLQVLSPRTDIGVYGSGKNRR

Compound	pIC50 (Jarid1A)	pIC50 (Jarid1B)	pIC50 (JMJD2C)
O=C(O)c1ccncc1NCc1cccc(OC(F)(F)F)c1 [Example 35, 3-{[3-(trifluoromethoxy)benzyl]amino}pyridine-4-carboxylic acid]	6.00 to 7.00	6.00 to 7.00	6.00 to 7.00
O=C(O)c1ccncc1NCc1ccccc1Nc1ccccc1 [Example 36, 3-{[2-(phenylamino)benzyl]amino}pyridine-4-carboxylic acid]	≥ 7.00	≥ 7.00	6.00 to 7.00
O=C(O)c1ccncc1NCc1cccc(OCC2CC2)c1 [Example 37, 3-{[3-(cyclopropylmethoxy)benzyl]amino}pyridine-4-carboxylic acid]	6.00 to 7.00	≥ 7.00	6.00 to 7.00
O=C(O)c1ccncc1NCc1coc2ccccc12 [Example 38, 3-[(1-benzofuran-3-ylmethyl)amino]pyridine-4-carboxylic acid]	≥ 7.00	≥ 7.00	6.00 to 7.00
O=C(O)c1ccncc1NCc1cc2ccccc2o1 [Example 41, 3-[(1-benzofuran-2-ylmethyl)amino]pyridine-4-carboxylic acid]	≥ 7.00	≥ 7.00	≥ 7.00
O=C(O)c1ccncc1NCC1Cc2ccccc2O1 (stereo not drawn) [Example 43, 3-[(2,3-dihydro-1-benzofuran-2-ylmethyl)amino]pyridine-4-carboxylic acid]	≥ 7.00	≥ 7.00	≥ 7.00
O=C(O)c1ccncc1NCC1COc2ccccc2O1 (stereo not drawn) [Example 44, 3-[(2,3-dihydro-1,4-benzodioxin-2-ylmethyl)amino]pyridine-4-carboxylic acid]	≥ 7.00	≥ 7.00	≥ 7.00
CC1(CNc2cnccc2C(=O)O)CCCc2ccccc21 (stereo not drawn) [Example 49, 3-{[(1-methyl-1,2,3,4-tetrahydronaphthalen-1-yl)methyl]amino}pyridine-4-carboxylic acid]	6.00 to 7.00	6.00 to 7.00	6.00 to 7.00
COc1ccc2c(c1)CCCC2CNc1cnccc1C(=O)O (stereo not drawn) [Example 60, 3-{[(6-methoxy-1,2,3,4-tetrahydronaphthalen-1-yl)methyl]amino}pyridine-4-carboxylic acid]	≥ 7.00	≥ 7.00	6.00 to 7.00
Cc1ccc2c(c1)C(CNc1cnccc1C(=O)O)CCO2 (stereo not drawn) [Example 63, 3-{[(6-methyl-3,4-dihydro-2H-chromen-4-yl)methyl]amino}pyridine-4-carboxylic acid]	≥ 7.00	≥ 7.00	6.00 to 7.00

Other lines, results leading:

pIC50 (Jarid1A)	pIC50 (Jarid1B)	pIC50 (JMJD2C)	Compound
≥ 7.00	≥ 7.00	≥ 7.00	Cc1ccc(CNc2cnccc2C(=O)O)o1 [Example 40, 3-{[(5-methylfuran-2-yl)methyl]amino}pyridine-4-carboxylic acid]
6.00 to 7.00	6.00 to 7.00	≥ 7.00	O=C(O)c1ccncc1NCC12CC3CC(CC(C3)C1)C2 [Example 42, 3-[(adamantan-1-ylmethyl)amino]pyridine-4-carboxylic acid]
≥ 7.00	≥ 7.00	6.00 to 7.00	O=C(O)c1ccncc1NCC1CCCc2ccccc21 (stereo not drawn) [Example 46, 3-[(1,2,3,4-tetrahydronaphthalen-1-ylmethyl)amino]pyridine-4-carboxylic acid]
≥ 7.00	≥ 7.00	6.00 to 7.00	O=C(O)c1ccncc1NC[C@H]1CCCc2ccccc21 [Example 47, 3-{[(1S)-1,2,3,4-tetrahydronaphthalen-1-ylmethyl]amino}pyridine-4-carboxylic acid]
6.00 to 7.00	6.00 to 7.00	6.00 to 7.00	O=C(O)c1ccncc1NC[C@@H]1CCCc2ccccc21 [Example 48, 3-{[(1R)-1,2,3,4-tetrahydronaphthalen-1-ylmethyl]amino}pyridine-4-carboxylic acid]
≥ 7.00	≥ 7.00	6.00 to 7.00	O=C(O)c1ccncc1NCC1CCCc2ccc(C3CC3)cc21 (stereo not drawn) [Example 53, 3-{[(7-cyclopropyl-1,2,3,4-tetrahydronaphthalen-1-yl)methyl]amino}pyridine-4-carboxylic acid]
≥ 7.00	≥ 7.00	≥ 7.00	O=C(O)c1ccncc1NCC1CCOc2ccccc21 (stereo not drawn) [Example 58, 3-[(3,4-dihydro-2H-chromen-4-ylmethyl)amino]pyridine-4-carboxylic acid]
